From US20160221932A1, “Methods and Uses of Melatonin Ligands” (priority 2013, published 2016)
Entries after “also recorded” stand apart in the source; their conditions may differ.

Tests used:
[1] = test system: rats with L5-L6 spinal nerves ligation; assay: L5-L6 spinal nerves ligature model, von Frey paw withdrawal threshold; type: in vivo, rat; conditions: for AUC of the antiallodynic effect across 8 h: mean±SEM, VEH 36.24±1.8 g; for AUC antiallodynic effect compared with GBP 100 mg/kg / AUC antiallodynic effect compared with MLT 150 mg/kg: doses of 20 and 40 mg/kg; for tactile allodynia in L5-L6 nerve ligated rats / analgesic effect in allodynic rats: summary statement; for tactile allodynia in L5-L6 nerve ligated rats: hindpaw withdrawal threshold to mechanical stimulation; for analgesic effect in allodynic rats: hindpaw withdrawal threshold vs untreated allodynic rats
Description: (§1) Animals: Wistar rats (150-250 g, Charles-River Saint-Constant, Quebec, Canada) were used for the formalin test, hot plate test and L5-L6 spinal nerves ligature model. The animals were housed at constant room temperature and humidity under a 12 h light/dark cycle (lights on at 7 AM). Food and water were available ad libitum.
L5-L6 Spinal Nerves Ligature: Nerve injury results in abnormal pain perception, known as neuropathic pain, which is associated with hyperalgesia (high pain sensibility) and allodynia (pain perception induced by innocuous stimuli) (Campbell and Meyer, 2006). The rat model for neuropathic pain develop by Kim and Chung (Kim and Chung, 1992) was used in which the L5 and L6 spinal nerves were ligated and two weeks later allodynia was measured by paw stimulation with von Frey filaments. Briefly, animals were anesthetized with a mixture of ketamine/xylazine/acepromazine (i.p.). Following surgical preparation and exposure of the dorsal vertebral column, the left L5 and L6 spinal nerves were exposed and tightly ligated with 3.0 chromic catgut suture distal to the dorsal root ganglion. For sham-operated rats, the nerves were exposed but not ligated. The incisions were closed using 3.0 vicryl sutures, and the animals were allowed to recover for 13 days.
On day 14 after surgery, rats were singularly placed in a test chamber (clear plastic, wire mesh-bottomed cage) and allowed to acclimatize for 30-40 min. Von Frey filaments (Stoelting, Wood Dale, Ill., USA) were used to measure the 50% paw withdrawal threshold using the up and down method by (Chaplan et al., 1994). […] Lifting of the paw indicated a positive response and prompted the use of the next weaker filament, whereas absence of paw withdrawal after 5 s indicated a negative response and prompted the next filament of increasing weight. This paradigm continued for four more measurements after the initial change of the behavioral response, or until five consecutive negative (assigned a score of 15 g), or four consecutive positive (assigned a score of 0.25 g) responses. The resulting score were used to calculate the 50% response threshold by using the formula proposed by Dixon et al., 1980.
Allodynia was considered to be present when paw withdrawal thresholds were less than 4 g. (Chaplan et al., 1994). All nerve-ligated rats were verified to be allodynic, responding to a stimulus of less than 4 g. Rats without allodynia were excluded. Following the determination of the basal response, tactile allodynia was assessed at 0.5, 1, 2, 3, 4, 5, 6, 7 and 8 h post-administration for each treatment below described.
[…] […] Another group of rats received only the vehicle (VEH) consisting on a 70% DMSO/saline solution (0.9% NaCl). All treatments were administered in a single subcutaneous injection with a volume of 1 ml. Rats were tested at 0 h (basal withdrawal threshold) and 0.5, 1, 2, 3, 4, 5, 6, 7 and 8 h post-treatment administration.
(§2) Statistical Analysis: Data analysis was done using SigmaPlot 12 (Systat Software, Inc.). Two-way ANOVA for repeated measures was used to analyze data from L5-L6 models using treatments (between) and testing time (within) as factors. One-way ANOVA was used to analyze AUC in the L5-L6 spinal nerves ligation model. One-way ANOVA was used for formalin and hot-plate tests. Post-hoc analyses were performed using Bonferroni t-test comparisons or Student-Newman-Keuls (SNK) test. All data are expressed as mean±Standard Error of the Mean (SEM). P<0.05 was considered significant.

Wistar rats = assay: formalin test; type: in vivo, rat; conditions: for licking time vs vehicle, first phase / licking time vs vehicle, second phase / licking time vs vehicle, total time: 30 min prior to test; for licking time compared to untreated rats: summary statement, dose not stated
Description: as §1
Formalin Test: Antinociception was assessed using the formalin test (Dubuisson and Dennis, 1977). Rats were placed in open Plexiglas observation chambers for 60 min to allow them to acclimatize to their surroundings; then they were removed for formalin administration. Rats were gently restrained while the dorsal surface of the right hindpaw was injected with […] of 1% formalin (37% formaldehyde solution further diluted in saline solution) with a 30-gauge needle. The animals were returned to the chambers and nociceptive behavior was observed immediately after formalin injection. Mirrors were placed in each chamber to enable unhindered observation. Licking/biting behavior directed to the formalin injected paw was scored in 5 min intervals considering number and duration of the licking. Cumulative behavior for the total duration of the test as well as the first (0-10 min) and second phase (20-50 min) was then analyzed (Sufka et al., 1998).The initial acute phase (0-10 min) was followed by a relatively short quiescent period, which was then followed by a prolonged tonic response (15-60 min). The first phase is considered to be the result of direct stimulation of nociceptors, whereas inflammation process contributes to phase 2 activity (Hunskaar and Hole, 1987). At the end of the experiment the rats were sacrificed in a CO2 chamber.
as §2

[2] = target: T1, human-cloned MT2 receptors (Homo sapiens, UniProt P49286); assay: cAMP assay in CHO cells expressing human-cloned MT2 (functional activity); type: cell-based; conditions: CHO cells
T1 construct: expressed in transfected cells
T1 sequence (P49286 1-362): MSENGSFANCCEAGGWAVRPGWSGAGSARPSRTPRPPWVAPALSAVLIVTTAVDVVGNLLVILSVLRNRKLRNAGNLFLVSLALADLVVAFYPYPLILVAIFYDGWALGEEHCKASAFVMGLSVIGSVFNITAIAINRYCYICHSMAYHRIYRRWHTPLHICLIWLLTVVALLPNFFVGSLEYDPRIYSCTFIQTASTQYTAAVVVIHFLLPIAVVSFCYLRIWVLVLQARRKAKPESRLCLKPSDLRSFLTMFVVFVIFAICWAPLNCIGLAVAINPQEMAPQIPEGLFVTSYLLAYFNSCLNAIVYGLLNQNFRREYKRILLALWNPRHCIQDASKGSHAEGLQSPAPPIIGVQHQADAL

human MT2 receptor = target: T2, human MT2 receptor (Homo sapiens, UniProt P49286); assay: 2-[125I]iodomelatonin competition binding, human MT2 in CHO cells
T2 construct: expressed in transfected cells
T2 sequence (P49286 1-362): T1 sequence (P49286 1-362)

human-cloned MT1 = target: T3, human-cloned MT1 (Homo sapiens, UniProt P48039); assay: impedance assay in CHO cells expressing human-cloned MT1 (functional activity); type: cell-based; conditions: for activity for the MLT receptor subtype MT1 (in words): CHO cells; as to MT1 Activity: key: A = ago0nist; PA = partial agonist; ANT = antagonits
T3 construct: expressed in transfected cells
T3 sequence (P48039 whole entry): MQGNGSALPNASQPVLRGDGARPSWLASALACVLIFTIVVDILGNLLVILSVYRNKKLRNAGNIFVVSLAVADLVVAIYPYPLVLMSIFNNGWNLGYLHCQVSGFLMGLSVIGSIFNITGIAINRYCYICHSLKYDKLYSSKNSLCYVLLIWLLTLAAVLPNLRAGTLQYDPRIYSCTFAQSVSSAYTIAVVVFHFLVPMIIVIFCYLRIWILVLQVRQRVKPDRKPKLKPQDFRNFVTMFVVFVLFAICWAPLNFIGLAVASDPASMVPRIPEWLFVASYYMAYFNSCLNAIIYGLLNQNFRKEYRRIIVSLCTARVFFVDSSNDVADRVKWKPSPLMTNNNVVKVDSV

human MT1 receptor = target: T4, human MT1 receptor (Homo sapiens, UniProt P48039); assay: 2-[125I]iodomelatonin competition binding, human MT1 in CHO cells; conditions: human MT1 stably expressed in CHO cells, calculated from IC50 by Cheng and Prusoff
T4 construct: expressed in transfected cells
T4 sequence (P48039 whole entry): as above

[3] = 20 mg/kg s.c., at 3 h (5b) or 5 h (5p) post-administration
[4] = 40 mg/kg s.c., at 2 h (5b) or 5 h (5p) post-administration

SMILES	AUC of the antiallodynic effect across 8 h ([1]; 5 mg/kg s.c.) [g]	AUC of the antiallodynic effect across 8 h ([1]; 10 mg/kg s.c.) [g]	duration of effect on paw withdrawal threshold, post-administration ([1]; 20 mg/kg s.c.)	reduction of the mechanical allodynia above the threshold (4 g) ([1]; 20 mg/kg s.c.)	start of increase of paw withdrawal threshold, post-administration ([1]; 20 mg/kg s.c.) [h]	highest increase in paw withdrawal threshold [1, 3] [% from basal]	AUC of the antiallodynic effect across 8 h ([1]; 20 mg/kg s.c.) [g]	duration of effect on paw withdrawal threshold, post-administration ([1]; 40 mg/kg s.c.)	reduction of the mechanical allodynia above the threshold (4 g) ([1]; 40 mg/kg s.c.)	start of increase of paw withdrawal threshold, post-administration ([1]; 40 mg/kg s.c.) [h]	highest increase in paw withdrawal threshold [1, 4] [% from basal]	AUC of the antiallodynic effect across 8 h ([1]; 40 mg/kg s.c.) [g]	AUC antiallodynic effect compared with GBP 100 mg/kg [1]	AUC antiallodynic effect compared with MLT 150 mg/kg [1]	tactile allodynia in L5-L6 nerve ligated rats [1]	analgesic effect in allodynic rats [1]	licking time vs vehicle, first phase (Wistar rats; 10 mg/kg)	licking time vs vehicle, first phase (Wistar rats; 20 mg/kg s.c.)	licking time vs vehicle, second phase (Wistar rats; 20 mg/kg s.c.)	licking time vs vehicle, total time (Wistar rats; 20 mg/kg s.c.)	other results
CC(=O)NCCN(c1ccc(F)cc1)c1cccc(Br)c1 [5p, N-{2-[(3-Bromophenyl)-4-fluorophenylamino]ethyl}acetamide]	89.03 ± 6.33	127.75 ± 12.08	up to 6 h	reduction of the mechanical allodynia	1	394	245.9 ± 19.9	up to 6 h	reduction of the mechanical allodynia	1	427.65	230.33 ± 17.69	comparable	greater antiallodynic effect	reduced allodynia; also recorded: reversed tactile allodynia	increased the analgesic effect	decrease in the licking time	decrease in the licking time; also recorded: decreased the licking time	decreased the licking time; also recorded: decrease of the licking time	reduction of the licking time; also recorded: decrease in the licking time; also recorded: decreased the licking time	duration of effect on paw withdrawal threshold, post-administration ([1]; 10 mg/kg s.c.): up to 3 h; start of increase of paw withdrawal threshold, post-administration ([1]; 10 mg/kg s.c.): 1 h; licking time vs vehicle, second phase (Wistar rats; 10 mg/kg): decreased the licking time; licking time vs vehicle, first phase (Wistar rats; 40 mg/kg): decrease in the licking time; also recorded: decreased the licking time; licking time vs vehicle, second phase (Wistar rats; 40 mg/kg): decreased the licking time; licking time vs vehicle, total time (Wistar rats; 40 mg/kg): reduction of the licking time; also recorded: decreased the licking time; licking time compared to untreated rats (Wistar rats): significantly decreased; activity for the MLT receptor subtype MT2 (in words) [2]: partial agonist activity; Ki (human MT2 receptor; human MT2 stably expressed in CHO cells, calculated from IC50 by Cheng and Prusoff, read-out: MT2 pKi (converted)): 0.537 nM; activity for the MLT receptor subtype MT1 (in words) (human-cloned MT1): antagonist; MT1 Activity (human-cloned MT1; intrinsic activity, human MT1 in CHO cells): ANT; Ki (human MT1 receptor; read-out: MT1 pKi (converted)): 178 nM
COc1cccc(N(CCNC(C)=O)c2ccccc2)c1 [5b, N-{2-[(3-Methoxyphenyl)-phenylamino]ethyl}acetamide]	81.11 ± 4.8	70.24 ± 4.23	up to 5 h	reduction of the mechanical allodynia above the threshold	1	419	219.12 ± 24.13	≤ 6 h	reduction of the mechanical allodynia above the threshold	0.5	395	220.13 ± 13.65	comparable	superior to MLT	reversed tactile allodynia; also recorded: reduced allodynia	increased the analgesic effect	decrease in the licking time	decrease in the licking time; also recorded: decreased the licking time	decreased the licking time; also recorded: decrease of the licking time	reduction of the licking time; also recorded: decrease in the licking time; also recorded: decreased the licking time	licking time vs vehicle, total time (Wistar rats; 10 mg/kg): reduction of the licking time; licking time vs vehicle, first phase (Wistar rats; 40 mg/kg): decrease in the licking time; also recorded: decreased the licking time; licking time vs vehicle, second phase (Wistar rats; 40 mg/kg): decreased the licking time; licking time vs vehicle, total time (Wistar rats; 40 mg/kg): reduction of the licking time; also recorded: decreased the licking time; licking time compared to untreated rats (Wistar rats): significantly decreased; activity for the MLT receptor subtype MT2 (in words) [2]: partial agonist activity; MT2 affinity compared with melatonin (human MT2 receptor): better MT2 affinity than melatonin; MT2-selectivity (human MT2 receptor; MT2 versus MT1): good MT2-selectivity; MT2 pKi (human MT2 receptor; human MT2 stably expressed in CHO cells, calculated from IC50 by Cheng and Prusoff): 10.18; activity for the MLT receptor subtype MT1 (in words) (human-cloned MT1): partial agonist activity; MT1 pKi (human MT1 receptor): 8.38
